Measured values as given in patent US12527770B2 (Teikoku Pharma USA, Inc., priority 2016, dated 2026).
Like-named read-outs stand apart in the source and are kept apart here.

Key:
[1] = tested on: patients after Austin bunionectomy surgery; conditions: for use of rescue medication (oxycodone), Mean (SD): n = 43
Procedure: Each transdermal delivery device was applied to the subject between 10 hours and 14 hours before each patient underwent Austin bunionectomy surgery with standard intraoperative anesthesia.
Pain was evaluated in patients at times from immediately after surgery through 72 hours after surgery using the Pain Intensity Numeric Rating Scale (NRS) and Summed Pain Intensity (NRSSPI). Pain was also evaluated based on the time and first use of rescue pain medication as well as total use of rescue medication.

Cc1cccc([C@H](C)c2cnc[nH]2)c1C [Dexmedetomidine]
solubility of dexmedetomidine (in Duro-Tak 87-2979): less than 2%
solubility of dexmedetomidine (in Duro-Tak 387/87-2353): 10-15%
solubility of dexmedetomidine (in hydroxyl functionalized acrylate polymer): less than 1%
solubility of dexmedetomidine (in levulinic acid): ~60%
solubility of dexmedetomidine (in oleic acid): ~40%
use of rescue medication (oxycodone), Mean (SD) ([1]; 0 to 24 Hours after Surgery): 23.5 (11.98)
use of rescue medication (oxycodone), Mean (SD) ([1]; 0 to 48 Hours after Surgery): 37.5 (22.74)
use of rescue medication (oxycodone), Mean (SD) ([1]; 0 to 72 Hours after Surgery): 46.4 (30.80)
proportion of patients requesting rescue medication ([1]; first six hours after surgery, vs placebo): lower proportion
pain intensity difference between dexmedetomidine and placebo ([1]; over a 4-fold mean plasma dexmedetomidine concentration range): constant
pain rating (Numerical Rating Scale) compared to placebo ([1]; through 72 hours after surgery, 2×3 cm^2 patch): lower pain rating
frequency of requests for rescue medication ([1]; vs placebo): less frequently
